Source: patent publication US20100203114A1, “MICELLE ENCAPSULATION OF THERAPEUTIC AGENTS” (WARF - Wisconsin Alumni Research Foundation, priority 2007, published 2010)
Read-outs that look alike come from different tables or passages of the source.

How the values were obtained:
[1] = dogs; cited from earlier work
MCF-7 = conditions: reported by the National Cancer Institute; cited from earlier work
[2] = tested on: MCF-7 human breast cancer cells; assay: In vitro cytotoxicity, resazurin dye; format: cell-based; conditions: MCF7, 72 hours
Procedure: (§1) In vitro cytotoxicity studies. […] Cell lines were plated in 96-well plates at an initial density of 3000 cells per well in 90 μL of appropriate media, and maintained at 37° C. under a 5% CO2 atmosphere. […] Drug-loaded micelles or micelles alone were formulated in MilliQ water (following dialysis of DMSO to form the micelles). It was not necessary to dilute the samples further before addition to wells. […] Following, the metabolic rate of cells was determined by using resazurin dye (Sigma-Aldrich).

[3] = tested on: PC-3 human prostate cells; assay: In vitro cytotoxicity, resazurin dye; format: cell-based; conditions: Prostate cell, 72 hours
Procedure: as §1

[4] = 17-AAG loading in PEG-PLA micelles prepared by dialysis (HPLC); format: physicochemical
Procedure: Preparation and characterization of drug loaded PEG-PLA micelles. […] For example, 5 mg of 17-AAG and 45 mg of PEG-PLA (10:90 w/w) were dissolved in 10 mL DMAc. The resulting solution was dialyzed against H2O in 3500 MWCO tubing (SpectraPor). Resulting micelles were centrifuged at 5000 g's for 10 min to precipitate unincorporated drug. […] Micelle solutions were concentrated by rotary evaporation at reduced pressure at room temperature, followed by centrification (5000 g's for 10 minutes).
The loading experiments were investigated at 10% w/w to evaluate the suitability of PEG-PLA micelles for solubilizing 17-AAG.

[5] = cited from earlier work

| Structure (SMILES) | maximum tolerated dose [1] | IC50 (MCF-7) | IC50 ([2]; n = 6, read-out: MCF-7 IC50) | IC50 ([2]; read-out: IC50 in MCF-7) | IC50 ([3]; n = 6, read-out: PC-3 IC50) | IC50 ([3]; read-out: IC50 in PC-3) | mol 17-AAG:mol PEG-PLA ([4]; 0.3 mM PEG-PLA solution) | 17-AAG solubilized ([4]; 0.3 mM PEG-PLA solution, initial 17-AAG 0.45 mg/mL (11.4% w/w)) | 17-AAG loaded ([4]; 0.3 mM PEG-PLA, weight 17-AAG versus total weight of carrier) | 17-AAG loading efficiency ([4]; PEG-PLA (12:6 kDa) micelles) | drug loading ([4]; PEG-PLA (12:12 kDa) micelles, with and without alpha-tocopherol) | time after which drug precipitated out of solution ([4]; micelles incorporating 1:1 alpha-tocopherol to drug, even at 4° C.) | Efficiency ([4]; total drug solubilized versus initial drug concentration) | solubility of 17-AAG ([5]; according to the National Cancer Institute) | aqueous solubility [5] | water solubility ([5]; neutral pH) |
| --- | --- | --- | --- | --- | --- | --- | --- | --- | --- | --- | --- | --- | --- | --- | --- | --- |
| CO[C@H]1/C=C\C=C(/C)C(=O)NC2=CC(=O)C(NCCN(C)C)=C(C[C@@H](C)C[C@H](OC)[C@H](O)[C@@H](C)/C=C(\C)[C@@H]1OC(N)=O)C2=O [17-DMAG, 17-dimethylamino-ethylamino-17-demethoxygeldanamycin] | 8 mg/m^2/day |  |  |  |  |  |  |  |  |  |  |  |  |  |  |  |
| C=CCNC1=C2C[C@@H](C)C[C@H](OC)[C@H](O)[C@@H](C)/C=C(\C)[C@H](OC(N)=O)[C@@H](OC)/C=C\C=C(/C)C(=O)NC(=CC1=O)C2=O [17-AAG, 17-allylamino-17-demethoxygeldanamycin] | 100-200 mg/m^2/day | 12.6 nM | 22 ± 14 nM | 22 ± 14 nM | 74 ± 14 nM | 74 ± 14 nM | 0.73±0.09 | 0.083 ± 0.012 mg/mL | 0.024 ± 0.003 mg/mg | 19±3 % w/w | < 0.5 mg/mL | 4 to 5 h | 19 ± 3% loaded | ~10 µg/mL | about 0.1 mg/mL | about 0.1 mg/mL |
